Data published in patent US20100098782A1, “USE OF SODIUM ACID SULFATE AS A DISINFECTANT” (JOHNSONDIVERSEY, INC., priority 2008, published 2010).
Values joined by “and” are separate entries in the source; they are usually repeats but may differ in a detail not shown here. Equal entries are not always repeated.

Key:
[1] = test system: Escherichia coli, ATCC #11229; test: Modification of the Germicidal and Detergent Sanitizing Action of Disinfectants (A.O.A.C.); assay type: cell-based; details: 4000 ppm, 25° C.
Experimental: The germicidal effectiveness of 4000 ppm of sodium acid sulfate was tested at various levels of pH. The pH of the solutions was adjusted by addition of sodium hydroxide. The test method was A Modification of the Germicidal and Detergent Sanitizing Action of Disinfectants, A.O.A.C., 17th Edition 2000. The test organism was Escherichia coli, ATCC #11229 (560,000 org/ml), which was contacted with the sodium acid sulfate for 10 seconds and 30 seconds at 25° C. The recovery medium was Tryptone Glucose Extract Agar with Asolectin and Tween 80. Phosphate Buffer 0.2M was employed.

Salmonella enteriditis = test: Antimicrobial effectiveness, suspension contact test; assay type: cell-based
Experimental: In order to determine the antimicrobial effectiveness of the present invention, Salmonella enteriditis at 120,000,000 organisms per milliliter was contacted for 30 seconds, 1 minute, or 2 minutes, with 2,000 ppm SAS, or 4,000 ppm SAS at the indicated pH. The neutralizer was 0.2M Phosphate Buffer, pH 7.0, and the growth medium was 3M Aerobic Count Petrifilm using an incubation time of 4 days at 35° C.

[2] = test system: organisms on freshly killed whole birds (3M Aerobic Count Petrifilm); test: Whole bird carcass dip test, aerobic count; details: for Organisms/Bird: individual birds
Experimental: In order to test the efficacy of the composition of the present invention for use in treating animal carcasses, freshly killed whole birds were dipped and completely immersed in 13 liters of treatment solution for 10 seconds. […] The growth medium was 3M Aerobic Count Petrifilm. The incubation was 2-3 days at 35° C. […] The same test was repeated using commercially available products, […]12, and Eden, comparing these with sodium acid sulfate and sodium acid sulfate in combination with citric acid.

[3] = 2000 ppm, pH 1.5, 30 seconds contact
[4] = 2000 ppm, pH 1.5, 2 minutes contact
[5] = 2000 ppm, pH 1.75, 30 seconds contact
[6] = 2000 ppm, pH 1.75, 1 minute contact
[7] = 2000 ppm, pH 2.0, 30 seconds contact
[8] = 2000 ppm, pH 2.0, 1 minute contact
[9] = 2000 ppm, pH 2.0, 2 minutes contact
[10] = 2000 ppm, pH 2.25, 30 seconds contact
[11] = 2000 ppm, pH 2.25, 1 minute contact
[12] = 2000 ppm, pH 2.25, 2 minutes contact
[13] = 2000 ppm, pH 2.5, 30 seconds contact
[14] = 2000 ppm, pH 2.5, 1 minute contact
[15] = 2000 ppm, pH 2.5, 2 minutes contact
[16] = 4000 ppm, pH 1.5, 30 seconds contact
[17] = 4000 ppm, pH 1.75, 30 seconds contact
[18] = 4000 ppm, pH 2.0, 30 seconds contact
[19] = 4000 ppm, pH 2.25, 30 seconds contact
[20] = 4000 ppm, pH 2.25, 1 minute contact
[21] = 4000 ppm, pH 2.25, 2 minutes contact
[22] = 4000 ppm, pH 2.5, 30 seconds contact
[23] = 4000 ppm, pH 2.5, 1 minute contact
[24] = 4000 ppm, pH 2.5, 2 minutes contact
[25] = 2000 ppm SAS, 10 seconds dip, pre 5 bird dip pH 1.60, post pH 1.78
[26] = 2000 ppm SAS, repeated test (Table 5)
[27] = 4000 ppm SAS, 10 seconds dip, pre 5 bird dip pH 1.56, post pH 1.75
[28] = 2400 ppm Lactic Acid, 10 seconds dip, pre 5 bird dip pH 1.80, post pH 1.96
[29] = 4800 ppm Lactic Acid, 10 seconds dip, pre 5 bird dip pH 1.80, post pH 1.96

O=S(=O)([O-])O.[Na+] [SAS, sodium acid sulfate]
% Reduction ([1]; pH 1.49, 10 seconds contact): 92.321%
Survivors ([1]; pH 1.49, 10 seconds contact): 43,000,000 org/ml
% Reduction ([1]; pH 1.49, 30 seconds contact): 92.804%
Survivors ([1]; pH 1.49, 30 seconds contact): 40,300,000 org/ml
% Reduction ([1]; pH 1.59, 10 seconds contact): 88.696%
Survivors ([1]; pH 1.59, 10 seconds contact): 63,300,000 org/ml
% Reduction ([1]; pH 1.59, 30 seconds contact): 89.732%
Survivors ([1]; pH 1.59, 30 seconds contact): 57,500,000 org/ml
% Reduction ([1]; pH 1.70, 10 seconds contact): 90.750%
Survivors ([1]; pH 1.70, 10 seconds contact): 51,800,000 org/ml
% Reduction ([1]; pH 1.70, 30 seconds contact): 91.785%
Survivors ([1]; pH 1.70, 30 seconds contact): 46,000,000 org/ml
% Reduction ([1]; pH 1.79, 10 seconds contact): 92.321%
Survivors ([1]; pH 1.79, 10 seconds contact): 43,000,000 org/ml
% Reduction ([1]; pH 1.79, 30 seconds contact): 93.839%
Survivors ([1]; pH 1.79, 30 seconds contact): 34,500,000 org/ml
% Reduction ([1]; pH 1.89, 10 seconds contact): 92.804%
Survivors ([1]; pH 1.89, 10 seconds contact): 40,300,000 org/ml
% Reduction ([1]; pH 1.89, 30 seconds contact): 94.375%
Survivors ([1]; pH 1.89, 30 seconds contact): 31,500,000 org/ml
% Reduction ([1]; pH 1.99, 10 seconds contact): 68.750%
Survivors ([1]; pH 1.99, 10 seconds contact): 175,000,000 org/ml
% Reduction ([1]; pH 1.99, 30 seconds contact): 81.785%
Survivors ([1]; pH 1.99, 30 seconds contact): 102,000,000 org/ml
% Reduction ([1]; pH 2.11, 10 seconds contact): 81.607%
Survivors ([1]; pH 2.11, 10 seconds contact): 103,000,000 org/ml
% Reduction ([1]; pH 2.11, 30 seconds contact): 82.857%
Survivors ([1]; pH 2.11, 30 seconds contact): 96,000,000 org/ml
% Reduction ([1]; pH 2.18, 10 seconds contact): 79.464%
Survivors ([1]; pH 2.18, 10 seconds contact): 115,000,000 org/ml
% Reduction ([1]; pH 2.18, 30 seconds contact): 98.089%
Survivors ([1]; pH 2.18, 30 seconds contact): 107,000,000 org/ml
% Reduction ([1]; pH 2.29, 10 seconds contact): 81.250%
Survivors ([1]; pH 2.29, 10 seconds contact): 105,000,000 org/ml
% Reduction ([1]; pH 2.29, 30 seconds contact): 86.250%
Survivors ([1]; pH 2.29, 30 seconds contact): 77,000,000 org/ml
% Reduction ([1]; pH 2.39, 10 seconds contact): 76.250%
Survivors ([1]; pH 2.39, 10 seconds contact): 133,000,000 org/ml
% Reduction ([1]; pH 2.39, 30 seconds contact): 77.142%
Survivors ([1]; pH 2.39, 30 seconds contact): 128,000,000 org/ml
% Reduction ([1]; pH 2.49, 10 seconds contact): 71.607%
Survivors ([1]; pH 2.49, 10 seconds contact): 159,000,000 org/ml
% Reduction ([1]; pH 2.49, 30 seconds contact): 72.142%
Survivors ([1]; pH 2.49, 30 seconds contact): 156,000,000 org/ml
% Reduction (Salmonella enteriditis; [3]): 90.250% and 85.250%
Survivors (Salmonella enteriditis; [3]): 11,700,000 org/ml and 17,700,000 org/ml
% Reduction (Salmonella enteriditis; 2000 ppm, pH 1.5, 1 minute contact): 99.962% and 99.983%
% Reduction (Salmonella enteriditis; [4]): >99.999%
Survivors (Salmonella enteriditis; [4]): 10 org/ml and 20 org/ml
% Reduction (Salmonella enteriditis; [5]): <79.167%
Survivors (Salmonella enteriditis; [5]): >25,000,000 org/ml
% Reduction (Salmonella enteriditis; [6]): <97.917%
Survivors (Salmonella enteriditis; [6]): >25,000,000 org/ml
% Reduction (Salmonella enteriditis; 2000 ppm, pH 1.75, 2 minutes contact): 98.192% and 98.817%
% Reduction (Salmonella enteriditis; [7]): <79.167%
Survivors (Salmonella enteriditis; [7]): >25,000,000 org/ml
% Reduction (Salmonella enteriditis; [8]): <97.917%
Survivors (Salmonella enteriditis; [8]): >25,000,000 org/ml
% Reduction (Salmonella enteriditis; [9]): <97.917%
Survivors (Salmonella enteriditis; [9]): >25,000,000 org/ml
% Reduction (Salmonella enteriditis; [10]): <79.167%
Survivors (Salmonella enteriditis; [10]): >25,000,000 org/ml
% Reduction (Salmonella enteriditis; [11]): <97.917%
Survivors (Salmonella enteriditis; [11]): >25,000,000 org/ml
% Reduction (Salmonella enteriditis; [12]): <97.917%
Survivors (Salmonella enteriditis; [12]): >25,000,000 org/ml
% Reduction (Salmonella enteriditis; [13]): <79.167%
Survivors (Salmonella enteriditis; [13]): >25,000,000 org/ml
% Reduction (Salmonella enteriditis; [14]): <97.917%
Survivors (Salmonella enteriditis; [14]): >25,000,000 org/ml
% Reduction (Salmonella enteriditis; [15]): <97.917%
Survivors (Salmonella enteriditis; [15]): >25,000,000 org/ml
% Reduction (Salmonella enteriditis; [16]): 96.167% and 92.833%
Survivors (Salmonella enteriditis; [16]): 4,600,000 org/ml and 8,600,000 org/ml
% Reduction (Salmonella enteriditis; 4000 ppm, pH 1.5, 1 minute contact): 99.994% and 99.976%
% Reduction (Salmonella enteriditis; 4000 ppm, pH 1.5, 2 minutes contact): >99.999% and 99.997%
% Reduction (Salmonella enteriditis; [17]): 94.250% and 92.917%
Survivors (Salmonella enteriditis; [17]): 6,900,000 org/ml and 8,500,000 org/ml
% Reduction (Salmonella enteriditis; 4000 ppm, pH 1.75, 1 minute contact): 96.667% and 98.417%
% Reduction (Salmonella enteriditis; 4000 ppm, pH 1.75, 2 minutes contact): 98.933% and 98.833%
% Reduction (Salmonella enteriditis; [18]): 83.250% and 84.500%
Survivors (Salmonella enteriditis; [18]): 20,100,000 org/ml and 18,600,000 org/ml
% Reduction (Salmonella enteriditis; 4000 ppm, pH 2.0, 1 minute contact): 94.583% and 97.833%
% Reduction (Salmonella enteriditis; 4000 ppm, pH 2.0, 2 minutes contact): 96.167% and 91.417%
% Reduction (Salmonella enteriditis; [19]): <79.167%
Survivors (Salmonella enteriditis; [19]): >25,000,000 org/ml
% Reduction (Salmonella enteriditis; [20]): <79.167%
Survivors (Salmonella enteriditis; [20]): >25,000,000 org/ml
% Reduction (Salmonella enteriditis; [21]): <79.167%
Survivors (Salmonella enteriditis; [21]): >25,000,000 org/ml
% Reduction (Salmonella enteriditis; [22]): <79.167%
Survivors (Salmonella enteriditis; [22]): >25,000,000 org/ml
% Reduction (Salmonella enteriditis; [23]): <79.167%
Survivors (Salmonella enteriditis; [23]): >25,000,000 org/ml
% Reduction (Salmonella enteriditis; [24]): <79.167%
Survivors (Salmonella enteriditis; [24]): >25,000,000 org/ml
antimicrobial activity (in words) (Salmonella enteriditis; at less than pH 2.5 and, particularly less than 2.0): greatly enhanced
Average Organisms/Bird [2, 25]: 576,000 Organisms/Bird
Organisms/Bird [2, 25]: 584,000 Organisms/Bird and 536,000 Organisms/Bird and 660,000 Organisms/Bird and 520,000 Organisms/Bird and 580,000 Organisms/Bird
% Reduction ([2]; 2000 ppm SAS, 10 seconds dip, pre 5 bird dip pH 1.60, post pH 1.78, vs no-treatment control): 75.0%
Average Organisms/Bird [2, 26]: 246,400 Organisms/Bird
Organisms/Bird [2, 26]: 556,000 Organisms/Bird and 128,000 Organisms/Bird and 264,000 Organisms/Bird and 88,000 Organisms/Bird and 196,000 Organisms/Bird
% Reduction ([2]; 2000 ppm SAS, repeated test (Table 5), vs wash control): 88.7%
Average Organisms/Bird [2, 27]: 618,400 Organisms/Bird
Organisms/Bird [2, 27]: 396,000 Organisms/Bird and 528,000 Organisms/Bird and 392,000 Organisms/Bird and 476,000 Organisms/Bird and 1,300,000 Organisms/Bird
% Reduction ([2]; 4000 ppm SAS, 10 seconds dip, pre 5 bird dip pH 1.56, post pH 1.75, vs no-treatment control): 73.2%
performance in carcass dip (in words) ([2]; both 2000 ppm and 4000 ppm): perform well

CC(O)C(=O)O (stereo not drawn) [Lactic Acid, lactic acid, reference compound]
Average Organisms/Bird [2, 28]: 2,054,800 Organisms/Bird
Organisms/Bird [2, 28]: 600,000 Organisms/Bird and 1,074,000 Organisms/Bird and 2,120,000 Organisms/Bird and 3,240,000 Organisms/Bird (2×)
% Reduction ([2]; 2400 ppm Lactic Acid, 10 seconds dip, pre 5 bird dip pH 1.80, post pH 1.96, vs no-treatment control): 10.8%
Average Organisms/Bird [2, 29]: 1,430,000 Organisms/Bird
Organisms/Bird [2, 29]: 1,000,000 Organisms/Bird and 1,800,000 Organisms/Bird and 1,400,000 Organisms/Bird and 1,520,000 Organisms/Bird
% Reduction ([2]; 4800 ppm Lactic Acid, 10 seconds dip, pre 5 bird dip pH 1.80, post pH 1.96, vs no-treatment control): 37.9%
antimicrobial effect in carcass dip (in words) ([2]; lactic acid itself (2400 and 4800 ppm)): relatively little antimicrobial effect
